Source: patent US9090586B2, “Heterocyclic compound” (TAKEDA PHARMACEUTICAL COMPANY LIMITED, priority 2010, dated 2015)

Target: T1, human PDE10A enzyme (Homo sapiens, UniProt Q9Y233)
T1 construct: Human PDE10A full-length gene was transfected into Sf9 or COS-7 cells; His-tag; made in house; host or cells: Sf9 or COS-7 cells
Assay: PDE10A enzyme activity inhibition test (SPA)
Assay type: biochemical
Settings: for inhibition at 0.1 µM: 100 nM compound, read-out: Inhibition rate (%) (100 nM); for IC50: [3H]cGMP substrate
Method: Human PDE10A full-length gene was transfected into Sf9 or COS-7 cells, the cells were disrupted and centrifuged, and human PDE10A enzyme was obtained from the residue. The enzyme extracted from Sf9 cells was partially purified using His-tag affinity column. The enzyme was stored at −70° C. until use. The PDE activity was measured using an SPA (Scintillation Proximity Assay) (GE Healthcare). To measure the inhibitory activity of the compound, 10 μL of serially diluted compound was reacted with 20 μL of PDE enzyme in an assay buffer (50 mM HEPES-NaOH, 8.3 mM MgCl2, 1.7 mM EGTA, 0.1% BSA (pH 7.4)) […] at room temperature. The final concentration of DMSO in the reaction mixture was 1 percent. The compounds were evaluated in duplicate in 96-well half-area plates (Corning). To start the reaction, 10 μL of substrate [^3H] cGMP (25 and 50 nM; GE Healthcare and PerkinElmer, respectively) was added to 40 μL. After 60 min of reaction at room temperature, yttrium SPA beads containing zinc sulphate were added (6 mg/mL, 20 μL) to terminate the PDE reaction. After standing still for 1 hr, the measurement was performed using a scintillation counter (PerkinElmer) and the PDE10A enzyme activity inhibition rate was calculated. The inhibition rate was calculated based on the control containing enzyme and DMSO as 0% and the control without enzyme as 100%.

T1 sequence (Q9Y233 267-1055): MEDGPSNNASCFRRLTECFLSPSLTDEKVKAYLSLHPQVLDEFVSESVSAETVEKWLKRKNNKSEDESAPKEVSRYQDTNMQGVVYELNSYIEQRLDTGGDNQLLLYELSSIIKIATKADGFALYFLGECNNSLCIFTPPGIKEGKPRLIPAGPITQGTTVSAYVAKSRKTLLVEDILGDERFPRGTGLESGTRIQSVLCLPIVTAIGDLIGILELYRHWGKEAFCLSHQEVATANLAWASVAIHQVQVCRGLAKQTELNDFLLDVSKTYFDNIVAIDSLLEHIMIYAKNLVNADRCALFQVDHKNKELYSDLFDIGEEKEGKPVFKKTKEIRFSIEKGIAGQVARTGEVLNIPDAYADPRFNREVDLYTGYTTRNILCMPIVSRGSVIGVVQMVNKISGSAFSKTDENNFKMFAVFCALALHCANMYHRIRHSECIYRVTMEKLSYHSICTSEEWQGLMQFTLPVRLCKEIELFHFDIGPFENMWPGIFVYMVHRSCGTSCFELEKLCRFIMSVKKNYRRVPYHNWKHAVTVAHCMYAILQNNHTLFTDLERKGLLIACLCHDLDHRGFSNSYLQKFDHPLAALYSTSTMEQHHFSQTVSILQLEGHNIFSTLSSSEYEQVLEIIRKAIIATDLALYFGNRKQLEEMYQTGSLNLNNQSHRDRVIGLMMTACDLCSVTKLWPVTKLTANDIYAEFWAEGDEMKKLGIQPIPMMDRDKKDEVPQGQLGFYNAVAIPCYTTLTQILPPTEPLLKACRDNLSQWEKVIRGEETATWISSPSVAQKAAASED

Compound	inhibition at 0.1 µM [%]	IC50 [nM]
COc1cn(-c2ccc3c(c2F)C(C)(C)C(=O)N3CC(F)(F)F)nc(-c2cc(C)nn2-c2ccccc2)c1=O [Example 20, 4-fluoro-5-[5-methoxy-3-(3-methyl-1-phenyl-1H-pyrazol-5-yl)-4-oxopyridazin-1(4H)-yl]-3,3-dimethyl-1-(2,2,2-trifluoroethyl)-1,3-dihydro-2H-indol-2-one]	100	≤ 10
COc1cn(-c2ccc3c(c2F)C(C)(C)C(=O)N3C2CCC2)nc(-c2ccnn2-c2ccccc2)c1=O [Example 50, 1-cyclobutyl-4-fluoro-5-[5-methoxy-4-oxo-3-(1-phenyl-1H-pyrazol-5-yl)pyridazin-1(4H)-yl]-3,3-dimethyl-1,3-dihydro-2H-indol-2-one]	101	≤ 10
COc1nc(N2CC(F)(F)C(F)(F)C2)ccc1-n1cc(OC)c(=O)c(-c2ccnn2-c2ccccc2)n1 [Example 52, 5-methoxy-1-[2-methoxy-6-(3,3,4,4-tetrafluoropyrrolidin-1-yl)pyridin-3-yl]-3-(1-phenyl-1H-pyrazol-5-yl)pyridazin-4(1H)-one]	101	≤ 10
COc1cn(-c2cnn(CC(F)(F)F)c2)nc(-c2ccnn2-c2ccccc2)c1=O [Example 35, 5-methoxy-3-(1-phenyl-1H-pyrazol-5-yl)-1-[1-(2,2,2-trifluoroethyl)-1H-pyrazol-4-yl]pyridazin-4(1H)-one]	100	≤ 10
COc1cn(-c2cnccn2)nc(-c2ccnn2-c2ccccc2)c1=O [Example 24, 5-methoxy-3-(1-phenyl-1H-pyrazol-5-yl)-1-(pyrazin-2-yl)pyridazin-4(1H)-one]	97	≤ 10
COc1cn(-c2ccc3nc(C)n(C)c3c2F)nc(-c2ccnn2-c2ccccc2)c1=O [Example 46, 1-(7-fluoro-1,2-dimethyl-1H-benzimidazol-6-yl)-5-methoxy-3-(1-phenyl-1H-pyrazol-5-yl)pyridazin-4(1H)-one]	98	≤ 10
COc1cn(-c2ccccn2)nc(-c2ccnn2-c2ccccc2)c1=O [Example 22, 5-methoxy-3-(1-phenyl-1H-pyrazol-5-yl)-1-pyridin-2-ylpyridazin-4(1H)-one]	100	≤ 10
COc1cn(-c2ccc(-n3cc(F)c(F)c3)nc2)nc(-c2ccnn2-c2ccccc2)c1=O [Example 33, 1-[6-(3,4-difluoro-1H-pyrrol-1-yl)pyridin-3-yl]-5-methoxy-3-(1-phenyl-1H-pyrazol-5-yl)pyridazin-4(1H)-one]	96	≤ 10
COc1cn(-c2cnn(CC(C)C)c2)nc(-c2ccnn2-c2ccccc2)c1=O [Example 42, 5-methoxy-1-[1-(2-methylpropyl)-1H-pyrazol-4-yl]-3-(1-phenyl-1H-pyrazol-5-yl)pyridazin-4(1H)-one]	100	≤ 10
COc1cc(-n2cc(F)c(F)c2)ccc1-n1cc(OC)c(=O)c(-c2ccnn2-c2ccccc2)n1 [Example 12, 1-[4-(3,4-difluoro-1H-pyrrol-1-yl)-2-methoxyphenyl]-5-methoxy-3-(1-phenyl-1H-pyrazol-5-yl)pyridazin-4(1H)-one]	100	≤ 10
COc1cn(-c2ccc3c(c2F)C(C)(C)C(=O)N3CC(F)(F)F)nc(-c2ccnn2-c2ccccc2)c1=O [Example 18, 4-fluoro-5-[5-methoxy-4-oxo-3-(1-phenyl-1H-pyrazol-5-yl)pyridazin-1(4H)-yl]-3,3-dimethyl-1-(2,2,2-trifluoroethyl)-1,3-dihydro-2H-indol-2-one]	100	≤ 10
COc1cn(-c2cnn(CC3CC3)c2)nc(-c2cc(C)nn2-c2ccccc2)c1=O [Example 51, 1-[1-(cyclopropylmethyl)-1H-pyrazol-4-yl]-5-methoxy-3-(3-methyl-1-phenyl-1H-pyrazol-5-yl)pyridazin-4(1H)-one]	102	≤ 10
